Measured values: patent US10758534B2 (Vertex Pharmaceuticals Incorporated, priority 2014, dated 2020)

Target: T1, F508del (Homo sapiens, UniProt P13569, DEL508-508)
T1 construct: expressed in transfected cells
Assay: Protocol 1: membrane potential optical assay (FLIPR III, voltage sensing dye), identification of potentiator compounds
Format: cell-based
Conditions: Table 3, compounds of Table 1
In short: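 Membrane potential in forskolin-activated, temperature-rescued F508del NIH 3T3 cells is followed with a voltage-sensing dye on FLIPR III. A chloride ion gradient created at the single addition step provides the driving force, after prior compound treatment.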

T1 sequence (P13569 with tags, fused parts or gaps DEL508-508): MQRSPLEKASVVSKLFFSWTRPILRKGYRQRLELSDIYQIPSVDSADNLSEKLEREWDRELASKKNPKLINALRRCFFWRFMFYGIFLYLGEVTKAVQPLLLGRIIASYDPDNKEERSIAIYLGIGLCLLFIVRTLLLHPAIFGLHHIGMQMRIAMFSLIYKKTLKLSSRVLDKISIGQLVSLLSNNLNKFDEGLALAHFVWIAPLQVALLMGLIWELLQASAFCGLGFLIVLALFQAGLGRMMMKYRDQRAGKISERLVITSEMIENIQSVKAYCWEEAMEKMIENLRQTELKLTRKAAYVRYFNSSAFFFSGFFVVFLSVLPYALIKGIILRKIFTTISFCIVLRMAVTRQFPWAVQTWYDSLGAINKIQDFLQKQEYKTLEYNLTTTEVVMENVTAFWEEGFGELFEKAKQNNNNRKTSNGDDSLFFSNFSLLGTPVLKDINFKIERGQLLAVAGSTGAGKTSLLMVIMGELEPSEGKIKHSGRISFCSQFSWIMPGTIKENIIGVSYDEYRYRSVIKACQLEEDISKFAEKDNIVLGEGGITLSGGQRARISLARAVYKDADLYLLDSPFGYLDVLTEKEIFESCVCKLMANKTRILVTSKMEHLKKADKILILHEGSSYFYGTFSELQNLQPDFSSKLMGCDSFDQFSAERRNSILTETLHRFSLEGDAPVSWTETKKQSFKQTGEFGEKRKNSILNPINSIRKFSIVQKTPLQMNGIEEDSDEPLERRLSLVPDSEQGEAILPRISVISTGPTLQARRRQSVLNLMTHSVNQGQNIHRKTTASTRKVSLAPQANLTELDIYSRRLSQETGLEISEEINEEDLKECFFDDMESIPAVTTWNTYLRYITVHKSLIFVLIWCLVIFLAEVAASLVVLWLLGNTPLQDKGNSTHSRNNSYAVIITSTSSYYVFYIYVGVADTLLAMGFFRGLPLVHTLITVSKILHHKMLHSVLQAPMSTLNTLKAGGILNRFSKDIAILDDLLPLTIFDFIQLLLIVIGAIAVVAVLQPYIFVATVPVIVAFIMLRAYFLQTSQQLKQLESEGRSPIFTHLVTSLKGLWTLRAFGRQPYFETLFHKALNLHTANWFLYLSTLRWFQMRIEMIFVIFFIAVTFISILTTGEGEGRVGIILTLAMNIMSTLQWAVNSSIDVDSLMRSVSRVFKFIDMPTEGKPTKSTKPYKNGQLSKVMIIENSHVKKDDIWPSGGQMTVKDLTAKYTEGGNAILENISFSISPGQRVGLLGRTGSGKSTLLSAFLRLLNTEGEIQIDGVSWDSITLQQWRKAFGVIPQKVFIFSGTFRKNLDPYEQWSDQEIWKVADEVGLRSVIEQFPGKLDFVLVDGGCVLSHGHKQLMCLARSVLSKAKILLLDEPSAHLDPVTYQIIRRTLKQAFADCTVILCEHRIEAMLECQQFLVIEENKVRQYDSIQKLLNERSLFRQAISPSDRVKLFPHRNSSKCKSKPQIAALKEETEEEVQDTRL

Row | EC30 | SMILES
1 | +++ (“+++” means <3 uM) | Cc1cc(C)c(Oc2nc(C3=CCC(C(F)(F)F)CC3)ccc2C(=O)NS(=O)(=O)c2cccc(N)n2)c(C)c1 (stereo not shown) [Compound 1402, N-[(6-amino-2-pyridyl)sulfonyl]-6-[4-(trifluoromethyl)cyclohexen-1-yl]-2-(2,4,6-trimethylphenoxy)pyridine-3-carboxamide]
2 | +++ (“+++” means <3 uM) | CCOc1cccc2c1CN(Cc1c(C)cc(C)cc1C)C2(C)C(=O)NS(=O)(=O)c1cccc(F)c1OC (stereo not shown) [Compound 1403, 4-ethoxy-N-(3-fluoro-2-methoxy-phenyl)sulfonyl-1-methyl-2-[(2,4,6-trimethylphenyl)methyl]isoindoline-1-carboxamide]
3 | +++ (“+++” means <3 uM) | CCOc1cccc2c1CN(Cc1ccccc1C)C2(C)C(=O)NS(=O)(=O)c1cccc(N)n1 (stereo not shown) [Compound 1408, N-[(6-amino-2-pyridyl)sulfonyl]-4-ethoxy-1-methyl-2-(o-tolylmethyl)isoindoline-1-carboxamide]
4 | +++ (“+++” means <3 uM) | Cc1cc(C)c(Oc2nc(C3=CC4CCC3(C)C4(C)C)ccc2C(=O)NS(=O)(=O)c2cccc(N)n2)c(C)c1 (stereo not shown) [Compound 1410, N-[(6-amino-2-pyridyl)sulfonyl]-6-(4,7,7-trimethyl-3-bicyclo[2.2.1]hept-2-enyl)-2-(2,4,6-trimethylphenoxy)pyridine-3-carboxamide]
5 | +++ (“+++” means <3 uM) | Cc1cc(C)c(Oc2nc(C3=COCC3)ccc2C(=O)NS(=O)(=O)c2cccc(N)n2)c(C)c1 [Compound 1412, N-[(6-amino-2-pyridyl)sulfonyl]-6-(2,3-dihydrofuran-4-yl)-2-(2,4,6-trimethylphenoxy)pyridine-3-carboxamide]
6 | +++ (“+++” means <3 uM) | CCOc1cccc2c1CN(Cc1c(C)cc(C)cc1C)C2(C)C(=O)NS(=O)(=O)c1ccc(N)nc1 (stereo not shown) [Compound 1413, N-[(6-amino-3-pyridyl)sulfonyl]-4-ethoxy-1-methyl-2-[(2,4,6-trimethylphenyl)methyl]isoindoline-1-carboxamide]
7 | +++ (“+++” means <3 uM) | CCOc1cccc2c1CN(Cc1c(C)cc(C)cc1C)C2(C)C(=O)NS(=O)(=O)c1cccc(NC(C)=O)n1 (stereo not shown) [Compound 1415, N-[(6-acetamido-2-pyridyl)sulfonyl]-4-ethoxy-1-methyl-2-[(2,4,6-trimethylphenyl)methyl]isoindoline-1-carboxamide]
8 | +++ (“+++” means <3 uM) | CCOc1cccc2c1CN(Cc1cc(F)cc(OC)c1)C2(C)C(=O)NS(=O)(=O)c1cccc(N)n1 (stereo not shown) [Compound 1421, N-[(6-amino-2-pyridyl)sulfonyl]-4-ethoxy-2-[(3-fluoro-5-methoxy-phenyl)methyl]-1-methyl-isoindoline-1-carboxamide]
9 | +++ (“+++” means <3 uM) | CCOc1cccc2c1CN(Cc1c(C)cc(C)cc1C)C2(C)C(=O)NS(=O)(=O)c1ccc2c(c1)CCN2 (stereo not shown) [Compound 1422, 4-ethoxy-N-indolin-5-ylsulfonyl-1-methyl-2-[(2,4,6-trimethylphenyl)methyl]isoindoline-1-carboxamide]
10 | +++ (“+++” means <3 uM) | C[C@@H]1CN(c2nc(-c3cc(F)cc(OCC(C)(C)O)c3)ccc2C(=O)NS(=O)(=O)c2cccc(N)n2)C(C)(C)C1 [Compound 1424, N-[(6-amino-2-pyridyl)sulfonyl]-6-[3-fluoro-5-(2-hydroxy-2-methyl-propoxy)phenyl]-2-[(4S)-2,2,4-trimethylpyrrolidin-1-yl]pyridine-3-carboxamide]
11 | +++ (“+++” means <3 uM) | CCOc1cccc2c1CN(Cc1c(C)cc(C)cc1C)C2(C)C(=O)NS(=O)(=O)c1cccc(F)c1 (stereo not shown) [Compound 1425, 4-ethoxy-N-(3-fluorophenyl)sulfonyl-1-methyl-2-[(2,4,6-trimethylphenyl)methyl]isoindoline-1-carboxamide]
12 | +++ (“+++” means <3 uM) | Cc1cc(C)c(Oc2nc(C3CC(C)(C)CCC3=O)ccc2C(=O)NS(=O)(=O)c2cccc(N)n2)c(C)c1 (stereo not shown) [Compound 1427, N-[(6-amino-2-pyridyl)sulfonyl]-6-(5,5-dimethyl-2-oxo-cyclohexyl)-2-(2,4,6-trimethylphenoxy)pyridine-3-carboxamide]
13 | +++ (“+++” means <3 uM) | CCOc1cccc2c1CN(Cc1cc(F)cc(OC)c1)C2(C)C(=O)NS(=O)(=O)c1cccc(F)n1 (stereo not shown) [Compound 1428, 4-ethoxy-2-[(3-fluoro-5-methoxy-phenyl)methyl]-N-[(6-fluoro-2-pyridyl)sulfonyl]-1-methyl-isoindoline-1-carboxamide]

Continued, compound first:

Row | SMILES | EC30
14 | [2H]C1([2H])[C@@H](C)CC(C)(C)N1c1nc(-c2cc(F)cc(OCC(C)C)c2)ccc1C(=O)NS(=O)(=O)c1cccc(N)n1 [Compound 1400, N-[(6-amino-2-pyridyl)sulfonyl]-2-[(3S)-2,2-dideuterio-3,5,5-trimethyl-pyrrolidin-1-yl]-6-(3-fluoro-5-isobutoxy-phenyl)pyridine-3-carboxamide] | +++ (“+++” means <3 uM)
15 | CC(C)(C)c1ccc(C(=O)NS(=O)(=O)c2cccc(N)n2)c(N2CC3CC(C3)C2)n1 [Compound 1401, N-[(6-amino-2-pyridyl)sulfonyl]-2-(3-azabicyclo[3.1.1]heptan-3-yl)-6-tert-butyl-pyridine-3-carboxamide] | +++ (“+++” means <3 uM)
16 | CC1CN(c2nc(C(C)(C)C)c(C3=CCN(C(=O)OCc4ccccc4)CC3)cc2C(=O)NS(=O)(=O)c2cccc(N)n2)C(C)(C)C1 (stereo not shown) [Compound 1404, benzyl 4-[5-[(6-amino-2-pyridyl)sulfonylcarbamoyl]-2-tert-butyl-6-(2,2,4-trimethylpyrrolidin-1-yl)-3-pyridyl]-3,6-dihydro-2H-pyridine-1-carboxylate] | +++ (“+++” means <3 uM)
17 | CC1CN(c2nc(C(C)(C)C)c(C3=CC(=O)CC(C)(C)C3)cc2C(=O)NS(=O)(=O)c2cccc(N)n2)C(C)(C)C1 (stereo not shown) [Compound 1405, N-[(6-amino-2-pyridyl)sulfonyl]-6-tert-butyl-5-(5,5-dimethyl-3-oxo-cyclohexen-1-yl)-2-(2,2,4-trimethylpyrrolidin-1-yl)pyridine-3-carboxamide] | +++ (“+++” means <3 uM)
18 | Cc1cc(OCC(C)C)nn1-c1ccc(C(=O)NS(=O)(=O)c2cccc(N)n2)c(N2C[C@@H](C)CC2(C)C)n1 [Compound 1407, N-[(6-amino-2-pyridyl)sulfonyl]-6-(3-isobutoxy-5-methyl-pyrazol-1-yl)-2-[(4S)-2,2,4-trimethylpyrrolidin-1-yl]pyridine-3-carboxamide] | +++ (“+++” means <3 uM)
19 | CC(C)COc1cc(F)cc(-c2nc(N3C[C@@H](C)CC3(C)C)ccc2C(=O)NS(=O)(=O)c2cccc(N)n2)c1 [Compound 1409, N-[(6-amino-2-pyridyl)sulfonyl]-2-(3-fluoro-5-isobutoxy-phenyl)-6-[(4S)-2,2,4-trimethylpyrrolidin-1-yl]pyridine-3-carboxamide] | +++ (“+++” means <3 uM)
20 | CC(C)Cc1ccn(-c2ccc(C(=O)NS(=O)(=O)c3cccc(N)n3)c(N3C[C@@H](C)CC3(C)C)n2)n1 [Compound 1411, N-[(6-amino-2-pyridyl)sulfonyl]-6-(3-isobutylpyrazol-1-yl)-2-[(4S)-2,2,4-trimethylpyrrolidin-1-yl]pyridine-3-carboxamide] | +++ (“+++” means <3 uM)
21 | CC(C)COc1cc(F)cc(-c2ccc(C(=O)NS(=O)(=O)N3CCCC(N(C)C)C3)c(N3CC(C)CC3(C)C)n2)c1 (stereo not shown) [Compound 1414, N—[[3-(dimethylamino)-1-piperidyl]sulfonyl]-6-(3-fluoro-5-isobutoxy-phenyl)-2-(2,2,4-trimethylpyrrolidin-1-yl)pyridine-3-carboxamide] | +++ (“+++” means <3 uM)
22 | Cc1cc(C)c(Oc2nc(N(C)CC(C)C)c(C)cc2C(=O)NS(=O)(=O)c2cccc(N)n2)c(C)c1 [Compound 1416, N-[(6-amino-2-pyridyl)sulfonyl]-6-[isobutyl(methyl)amino]-5-methyl-2-(2,4,6-trimethylphenoxy)pyridine-3-carboxamide] | +++ (“+++” means <3 uM)
23 | Cc1ccc(NCC(C)C)nc1-c1ccc(C(=O)NS(=O)(=O)c2cccc(N)n2)c(N2CC(C)CC2(C)C)n1 (stereo not shown) [Compound 1417, N-[(6-amino-2-pyridyl)sulfonyl]-6-[6-(isobutylamino)-3-methyl-2-pyridyl]-2-(2,2,4-trimethylpyrrolidin-1-yl)pyridine-3-carboxamide] | ++ (“++” means between 3 uM and 10 uM)
24 | CC(C)COc1cc(F)cc(-c2ccc(C(=O)NS(=O)(=O)c3cccc(N)n3)c(OCCC3CCC3)n2)c1 [Compound 1418, N-[(6-amino-2-pyridyl)sulfonyl]-2-(2-cyclobutylethoxy)-6-(3-fluoro-5-isobutoxy-phenyl)pyridine-3-carboxamide] | +++ (“+++” means <3 uM)
25 | CC1CN(c2nc(C(C)(C)C)c(C#N)cc2C(=O)NS(=O)(=O)c2cccc(N)n2)C(C)(C)C1 (stereo not shown) [Compound 1419, N-[(6-amino-2-pyridyl)sulfonyl]-6-tert-butyl-5-cyano-2-(2,2,4-trimethylpyrrolidin-1-yl)pyridine-3-carboxamide] | +++ (“+++” means <3 uM)
26 | Cc1ccc(C(=O)NS(=O)(=O)c2cccc(N)n2)c(N2C[C@@H](C)CC2(C)C)n1 [Compound 1420, N-[(6-amino-2-pyridyl)sulfonyl]-6-methyl-2-[(4S)-2,2,4-trimethylpyrrolidin-1-yl]pyridine-3-carboxamide] | ++ (“++” means between 3 uM and 10 uM)
27 | C=C(C)c1ccc(C(=O)NS(=O)(=O)c2cccc(N)n2)c(N2C[C@@H](C)CC2(C)C)n1 [Compound 1423, N-[(6-amino-2-pyridyl)sulfonyl]-6-isopropenyl-2-[(4S)-2,2,4-trimethylpyrrolidin-1-yl]pyridine-3-carboxamide] | +++ (“+++” means <3 uM)
28 | CC(C)COc1cc(F)cc(-c2ccc(C(=O)NS(=O)(=O)c3cccc(N)n3)c(OCCc3ccccc3)n2)c1 [Compound 1426, N-[(6-amino-2-pyridyl)sulfonyl]-6-(3-fluoro-5-isobutoxy-phenyl)-2-phenethyloxy-pyridine-3-carboxamide] | +++ (“+++” means <3 uM)
